How the values were obtained:
Assay in all cases: relative viability (nuclei count vs DMSO), 5 days (fraction); higher = more cells survive
[1] = compound: NCC(=O)Nc1ccc(-n2nc(C(F)(F)F)cc2-c2ccc3c(ccc4ccccc43)c2)cc1 + O=C(CCCCCCC(=O)Nc1ccccc1)NO [Vorinostat] (partner 1 µM)
In short: (§1)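 After 5 days of treatment, lung cancer cells in 1536-well plates were fixed and stained in a single step (final 0.05% Triton X-100, 1% formaldehyde, 1 ug/ml Hoechst) and their nuclei counted on 4× images. Treatment had been applied by pin tool the day after seeding as one drug alone or as a fixed anchor-drug dose with five library-drug doses (not always all listed) in √10 steps. Relative viability is the nuclei count of treated wells divided by that of vehicle wells, and values are medians of duplicate plates.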

[2] = compound: C1CSC2=C(C(=O)N1)SC3=C2C=C(C=C3)O [kb NB 142-70] + CC(=O)c1c(C)c2cnc(Nc3ccc(N4CCNCC4)cn3)nc2n(C2CCCC2)c1=O [Palbociclib] (partner 0.5 µM)
In short: as §1

[3] = compound: NCC(=O)Nc1ccc(-n2nc(C(F)(F)F)cc2-c2ccc3c(ccc4ccccc43)c2)cc1 + CC(C)C[C@H](NC(=O)[C@H](Cc1ccccc1)NC(=O)c1cnccn1)B(O)O [Bortezomib] (partner 0.002 µM)
In short: as §1

[4] = compound: C1CSC2=C(C(=O)N1)SC3=C2C=C(C=C3)O [kb NB 142-70] + C[C@@H](Oc1cc(-c2cnn(C3CCNCC3)c2)cnc1N)c1c(Cl)ccc(F)c1Cl [Crizotinib] (partner 1 µM)
In short: as §1

NCI-H322M
relative viability ([1]; first compound 0.02 µM): 0.993 | relative viability ([1]; first compound 0.06325 µM): 0.957 | relative viability ([1]; first compound 0.2 µM): 0.836 | relative viability ([1]; first compound 0.6325 µM): 0.927 | relative viability ([1]; first compound 2 µM): 0.984 | relative viability ([2]; first compound 0.1 µM): 0.541 | relative viability ([2]; first compound 1 µM): 0.511 | relative viability ([2]; first compound 3.162 µM): 0.505 | relative viability ([3]; first compound 0.02 µM): 1.41 | relative viability ([3]; first compound 0.06325 µM): 1.29 | relative viability ([3]; first compound 0.2 µM): 1.15 | relative viability ([3]; first compound 0.6325 µM): 1.18 | relative viability ([3]; first compound 2 µM): 1.14 | relative viability ([4]; first compound 0.1 µM): 1 | relative viability ([4]; first compound 1 µM): 1.1 | relative viability ([4]; first compound 3.162 µM): 1

NCI-H441
relative viability ([1]; first compound 0.02 µM): 1.02 | relative viability ([1]; first compound 0.06325 µM): 0.705 | relative viability ([1]; first compound 0.2 µM): 0.987 | relative viability ([1]; first compound 0.6325 µM): 0.72 | relative viability ([1]; first compound 2 µM): 0.866 | relative viability ([2]; first compound 0.1 µM): 0.237 | relative viability ([2]; first compound 1 µM): 0.209 | relative viability ([2]; first compound 3.162 µM): 0.169 | relative viability ([3]; first compound 0.02 µM): 0.931 | relative viability ([3]; first compound 0.06325 µM): 0.481 | relative viability ([3]; first compound 0.2 µM): 0.308 | relative viability ([3]; first compound 0.6325 µM): 0.409 | relative viability ([3]; first compound 2 µM): 0.361 | relative viability ([4]; first compound 0.1 µM): 0.958 | relative viability ([4]; first compound 1 µM): 0.64 | relative viability ([4]; first compound 3.162 µM): 0.433

NCI-H460
relative viability ([1]; first compound 0.02 µM): 0.707 | relative viability ([1]; first compound 0.06325 µM): 0.662 | relative viability ([1]; first compound 0.2 µM): 0.687 | relative viability ([1]; first compound 0.6325 µM): 0.737 | relative viability ([1]; first compound 2 µM): 0.661 | relative viability ([2]; first compound 0.1 µM): 0.166 | relative viability ([2]; first compound 1 µM): 0.233 | relative viability ([2]; first compound 3.162 µM): 0.171 | relative viability ([3]; first compound 0.02 µM): 1.21 | relative viability ([3]; first compound 0.06325 µM): 1.11 | relative viability ([3]; first compound 0.2 µM): 1.07 | relative viability ([3]; first compound 0.6325 µM): 1.03 | relative viability ([3]; first compound 2 µM): 1.07 | relative viability ([4]; first compound 0.1 µM): 0.766 | relative viability ([4]; first compound 1 µM): 0.801 | relative viability ([4]; first compound 3.162 µM): 0.326

NCI-H520
relative viability ([1]; first compound 0.02 µM): 0.631 | relative viability ([1]; first compound 0.06325 µM): 0.779 | relative viability ([1]; first compound 0.2 µM): 0.873 | relative viability ([1]; first compound 0.6325 µM): 0.77 | relative viability ([1]; first compound 2 µM): 0.763 | relative viability ([2]; first compound 0.1 µM): 0.234 | relative viability ([2]; first compound 1 µM): 0.21 | relative viability ([2]; first compound 3.162 µM): 0.164 | relative viability ([3]; first compound 0.02 µM): 0.646 | relative viability ([3]; first compound 0.06325 µM): 0.568 | relative viability ([3]; first compound 0.2 µM): 1.05 | relative viability ([3]; first compound 0.6325 µM): 0.671 | relative viability ([3]; first compound 2 µM): 0.789 | relative viability ([4]; first compound 0.1 µM): 0.869 | relative viability ([4]; first compound 1 µM): 0.825 | relative viability ([4]; first compound 3.162 µM): 0.507

NCI-H647
relative viability ([1]; first compound 0.02 µM): 0.409 | relative viability ([1]; first compound 0.06325 µM): 0.539 | relative viability ([1]; first compound 0.2 µM): 0.578 | relative viability ([1]; first compound 0.6325 µM): 0.411 | relative viability ([1]; first compound 2 µM): 0.486 | relative viability ([2]; first compound 0.1 µM): 0.289 | relative viability ([2]; first compound 1 µM): 0.372 | relative viability ([2]; first compound 3.162 µM): 0.414 | relative viability ([3]; first compound 0.02 µM): 1.14 | relative viability ([3]; first compound 0.06325 µM): 1.18 | relative viability ([3]; first compound 0.2 µM): 1.09 | relative viability ([3]; first compound 0.6325 µM): 1.04 | relative viability ([3]; first compound 2 µM): 0.99 | relative viability ([4]; first compound 0.1 µM): 1.08 | relative viability ([4]; first compound 1 µM): 1.27 | relative viability ([4]; first compound 3.162 µM): 1.12

— the supplement of paper PMC10307832
